This is an account of results in patent US8057659B2, “Detection of analytes in a dual-mediator electrochemical test strip” (AgaMatrix, Inc., priority 2006, dated 2011).

Series [1] is described as follows: Redox potential of the mediator. Format: physicochemical. The source says: Another specific mediator is [Os(Mebpy)2Pic]^+/2+.
Another series concerns the target GOX (Aspergillus niger, UniProt P13006). Conditions: 3+ form of mediator.

Sequence of GOX (P13006 17-605, species assumed): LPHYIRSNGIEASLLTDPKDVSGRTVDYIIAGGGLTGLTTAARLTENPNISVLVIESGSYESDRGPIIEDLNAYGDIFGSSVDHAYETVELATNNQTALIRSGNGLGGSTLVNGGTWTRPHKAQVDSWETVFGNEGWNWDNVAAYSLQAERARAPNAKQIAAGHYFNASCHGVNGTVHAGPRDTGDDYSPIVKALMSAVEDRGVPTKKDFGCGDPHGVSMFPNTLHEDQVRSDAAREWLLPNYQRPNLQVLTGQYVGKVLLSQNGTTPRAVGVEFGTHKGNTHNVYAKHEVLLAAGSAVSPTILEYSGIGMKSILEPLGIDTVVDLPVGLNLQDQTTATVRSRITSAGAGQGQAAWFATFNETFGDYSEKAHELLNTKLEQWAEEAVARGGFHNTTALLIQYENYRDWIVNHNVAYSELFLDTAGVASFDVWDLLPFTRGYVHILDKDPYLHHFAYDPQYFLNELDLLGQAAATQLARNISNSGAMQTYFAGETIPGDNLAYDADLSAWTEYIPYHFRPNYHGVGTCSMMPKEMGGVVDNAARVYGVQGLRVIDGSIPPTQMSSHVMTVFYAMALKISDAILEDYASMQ

For [Os(MeBpy)2(Im)2]^2+/3+, in series [1], the “redox potential E^o” value is on record as 140-154 mV. The “second order rate constant of electron transfer from GOX to the 3+ mediator” value at GOX was “approximately 4.0×10^5 M^−1s^−1”.
